A short description of series [1]: Cytotoxicity in uninfected RD cells (CC50, MTT). The format is cell-based. The conditions noted are these: human, Table 1. As for the experimental part: (§1) RD cells were seeded into a 96-well plate (10^4 cells/well), and infected with 100× TCID50 of EV71 viruses. After 2 hrs, various concentrations of the derivative were added. […] Uninfected cells were also given various concentrations of the derivative to determine the CC50.
RD cells were seeded into a 96-well plate (10^4 cells/well), and infected with 100×TCID50 of CAV16 viruses. After 2 hrs, various concentrations of the derivative were added. […] Uninfected cells were also given various concentrations of the derivative to determine the CC50.

Series [2] deals with EV71. Briefly: In-vitro experiment against EV71 virus (RD cells, MTT). The format is cell-based. To be noted: for pEC50: Enterovirus A, RD cells infected with 100x TCID50 EV71, compound added after 2 hrs, MTT at 48 hrs; for SI: selectivity index, EV71, RD cells. As for the experimental part: as §1
The nature of series [3]: Toxicity test in ICR mice after single administration by intraperitoneal injection. The class given is in vivo. As for the experimental part: 22 10-day-old ICR mice were randomly assigned to 17 groups, and given Compound 6 once by intraperitoneal injection at a dosage of 0.625, 1.25, 2.5, 5, 10, 20, 40, 80, 100, 160, 200, 250, 300, 470, 500, 1000, or 2000 mg/kg. 1-2 animals were included in each group, and the male and female mice were administered alternately. […] The dead animals are necropsied and the changes in main organs were observed. On day 1 after administration, the weight of the animals in the 160 mg/kg group is decreases by 0.3 g, and the weight of the animals in the 0.625, 1.25, 2.5, 5, 10, 20, 40, 80, 100 mg/kg group is increased, compared to the day of administration. Under the conditions in this experiment, ICR mice were given Compound 6 once by intraperitoneal injection. The minimum lethal dose was 200 mg/kg and the maximum tolerated dose was 160 mg/kg.
24 10-day-old ICR mice were randomly assigned to 19 groups, and given Compound 6 once by intraperitoneal injection at a dosage of 0.625, 1.25, 2.5, 5, 10, 20, 40, 60, 80, 100, 120, 136, 160, 270, 320, 500, 690, 1000, or 2000 mg/kg. 1-2 animals were included in each group, and the male and female mice were administered alternately. […] The dead animals are necropsied and the changes in main organs were observed. […] Under the conditions in this experiment, ICR mice were given Compound 20 once by intraperitoneal injection.

In series [4] the test system is Salmonella typhimurium TA100. Kind of series: Test of reverse mutation in histidine-deficient Salmonella typhimurium, strain TA100. The class given is cell-based. To be noted: 1.5 μg/dish, positive control. As to the method: The mutagenic effect of Compound 6 on the strains TA100 and TA102 was detected by determining the reverse mutation in histidine-deficient Salmonella typhimurium by pre-loaded culture dish method. The dosage of Compound 6 is 8, 40, 200, 1000, or 5000 μg/dish under activated and non-activated conditions, and the mutagenic effects on TA100 and TA102 were tested.

Each structure is given as a SMILES string. pEC50: −log10 of the molar value.

In the case of `O=C(COc1ccc(Cl)cc1)OC1C(O)C=C2CCN3Cc4cc5c(cc4C1C23)OCO5` (stereo not drawn) [Compound 3, 1-(4-chloro-phenoxyacetyl)-lycorine], it took 154 µM to reach half-maximal cytotoxicity in series [1] (CC50 at 48 h). Also, in series [2], the negative-log EC50 (pEC50) is 5.89 and the SI is listed as 139.85.
The compound `O=C(CCCOc1ccccc1)OC1C(O)C=C2CCN3Cc4cc5c(cc4C1C23)OCO5` (stereo not drawn) [Compound 4, 1-(4-phenoxybutyryl)-lycorine] showed a CC50 at 48 h in series [1] of 150 µM. In series [2], the negative logarithm of the EC50 (pEC50) is 5.75 and the SI is given as 84.84.
Regarding `O=C(CCOc1ccccc1)OC1C(O)C=C2CCN3Cc4cc5c(cc4C1C23)OCO5` (stereo not drawn) [Compound 5, 1-(3-phenoxypropionyl)-lycorine], in series [1], the 50% cytotoxic concentration (CC50) at 48 h worked out at 134 µM. In series [2], this compound showed a pEC50 of 5.84 and an SI of 92.43.
Turning to `O=C(COc1ccc(Br)cc1)OC1C(O)C=C2CCN3Cc4cc5c(cc4C1C23)OCO5` (stereo not drawn) [Compound 7, 1-(4-bromo-phenoxyacetyl)-lycorine], the CC50 at 48 h in series [1] worked out at 103 µM. Moreover, in series [2], the negative-log EC50 (pEC50) is 5.83 and the SI is reported as 70.36.
In series [1], `O=C(COc1ccc([N+](=O)[O-])cc1)OC1C(O)C=C2CCN3Cc4cc5c(cc4C1C23)OCO5` (stereo not drawn) [Compound 8, 1-(4-nitro-phenoxyacetyl)-lycorine] had a CC50 at 48 h of 105 µM. Further, in series [2], the pEC50 was 5.91 and the SI is given as 85.67.
The compound `O=C(COc1ccc(I)cc1)OC1C(O)C=C2CCN3Cc4cc5c(cc4C1C23)OCO5` (stereo not drawn) [Compound 9, 1-(4-iodo-phenoxyacetyl)-lycorine] gave a 50% cytotoxic concentration (CC50) at 48 h in series [1] of 99.6 µM. In series [2], this compound gave a negative logarithm of the EC50 (pEC50) of 5.74 and an SI of 54.15.
Take `CC(C)c1ccc(OCC(=O)OC2C(O)C=C3CCN4Cc5cc6c(cc5C2C34)OCO6)cc1` (stereo not drawn) [Compound 10, 1-(4-isopropyl-phenoxyacetyl)-lycorine]: half-maximal cytotoxicity in series [1] (CC50 at 48 h) was put at 101 µM. In series [2], this compound gave a pEC50 of 5.78 and an SI of 60.63.
Compound `O=C(CSc1ccc(Cl)cc1)OC1C(O)C=C2CCN3Cc4cc5c(cc4C1C23)OCO5` (stereo not drawn) [Compound 11, 1-(4-chloro-phenylthioacetyl)-lycorine] registered a CC50 at 48 h in series [1] of 131 µM. Besides, in series [2], the pEC50 is 5.84 and the SI is recorded as 89.40.
Compound `Cc1ccc(OCC(=O)OC2C(O)C=C3CCN4Cc5cc6c(cc5C2C34)OCO6)cc1` (stereo not drawn) [Compound 12, 1-(4-methylphenoxyacetyl)-lycorine] showed a cytotoxic concentration (CC50) at 48 h in series [1] of 134 µM. In series [2], this compound showed a negative logarithm of the EC50 (pEC50) of 5.82 and an SI of 87.73.
In turn, `Cc1ccc(OCC(=O)OC2C(O)C=C3CCN4Cc5cc6c(cc5C2C34)OCO6)c(C)c1` (stereo not drawn) [Compound 13, 1-(2,4-dimethyl-phenoxyacetyl)-lycorine] returned a cytotoxic concentration (CC50) at 48 h in series [1] of 149 µM. Moreover, in series [2], the pEC50 is 5.81 and the SI is given as 95.33.
The corresponding values for `O=C(COc1ccccc1Cl)OC1C(O)C=C2CCN3Cc4cc5c(cc4C1C23)OCO5` (stereo not drawn) [Compound 14, 1-(2-chloro-phenoxyacetyl)-lycorine] are 145 µM, 5.79 and 89.10.
In series [1], `O=C(COc1cccc(Cl)c1)OC1C(O)C=C2CCN3Cc4cc5c(cc4C1C23)OCO5` (stereo not drawn) [Compound 15, 1-(3-chloro-phenoxyacetyl)-lycorine] registered a CC50 at 48 h of 152 µM. Further, in series [2], the negative-log EC50 (pEC50) is 5.76 and the SI is given as 87.61.
`O=C(COc1ccc(Cl)cc1Cl)OC1C(O)C=C2CCN3Cc4cc5c(cc4C1C23)OCO5` (stereo not drawn) [Compound 16, 1-(2,4-dichloro-phenoxyacetyl)-lycorine] gave a CC50 at 48 h in series [1] of 130 µM. In series [2], this compound gave a negative logarithm of the EC50 (pEC50) of 5.77 and an SI of 75.94.
On to `O=C(COc1ccccc1[N+](=O)[O-])OC1C(O)C=C2CCN3Cc4cc5c(cc4C1C23)OCO5` (stereo not drawn) [Compound 17], for which, in series [1], it took 156 µM to reach half-maximal cytotoxicity (CC50 at 48 h). For the same compound, in series [2], the pEC50 was 5.77 and the SI amounted to 91.37.
In series [1], `COc1ccc(OCC(=O)OC2C(O)C=C3CCN4Cc5cc6c(cc5C2C34)OCO6)cc1` (stereo not drawn) [Compound 18, 1-(4-methoxy-phenoxyacetyl)-lycorine] showed a CC50 at 48 h of 161 µM. In series [2], this compound gave a pEC50 of 5.78 and an SI of 97.65.
In the case of `O=C(COc1ccc2ccccc2c1)OC1C(O)C=C2CCN3Cc4cc5c(cc4C1C23)OCO5` (stereo not drawn) [Compound 19, 1-(2-naphthyl-phenoxyacetyl)-lycorine], in series [1], it took 163 µM to reach half-maximal cytotoxicity (CC50 at 48 h). In series [2], this compound had a pEC50 of 5.71 and an SI of 82.94.
For the compound `O=C(CSc1ccc(F)cc1)OC1C(O)C=C2CCN3Cc4cc5c(cc4C1C23)OCO5` (stereo not drawn) [Compound 20, 1-(4-fluoro-phenylthioacetyl)-lycorine], the minimum lethal dose in series [3] (10-day-old ICR mice, single intraperitoneal injection, observed 14 days) came out at 160 mg/kg. In addition, the MTD at 14 days in series [3] (both sexes, ICR, mouse, in vivo, ip) was 136 mg/kg. For the same compound, the “Weight on day 1 after administration” value in series [3] (mouse, in vivo, ip, 0.625 mg/kg) was found to be 5.2; in series [3] (mouse, in vivo, ip, 1.25 mg/kg), 6.6; in series [3] (mouse, in vivo, ip, 5 mg/kg) it was 6.4; in series [3] (mouse, in vivo, ip, 10 mg/kg), 6.5; in series [3] (mouse, in vivo, ip, 20 mg/kg), 5.9; in series [3] (mouse, in vivo, ip, 40 mg/kg) it was 6.8. Further, the “Weight on day 1 after administration” value in series [3] (mouse, in vivo, ip, 60 mg/kg) came out at 7; in series [3] (mouse, in vivo, ip, 100 mg/kg), 6.8; in series [3] (mouse, in vivo, ip, 136 mg/kg) it was 6.7.
In series [1], `O=C(CCc1ccccc1)OC1C(O)C=C2CCN3Cc4cc5c(cc4C1C23)OCO5` (stereo not drawn) [Compound 23, 1-(3-phenylpropionyl)-lycorine] registered a 50% cytotoxic concentration (CC50) at 48 h of 129 µM. In series [2], the negative-log EC50 (pEC50) is 5.76 and the SI turned out to be 74.28.
As for `[N-]=[N+]=[N-].[Na+]` [NaN3, reference compound], in series [4], the “Number of colonies TA100(−S9)” value is recorded as above 1000.

The values are drawn from patent US11932653B2, “Lycorine derivative, and pharmaceutical composition and use thereof” (priority 2018, dated 2024).
